{
  "source": "patent US11224577B2",
  "about": "“Treating infection by a platelet-targeting microbe using nanoparticles” (The Regents of the University of California, priority 2015, dated 2022)",
  "type": "physicochemical",
  "protocol": "100 nm polymeric cores were prepared using 0.67 dL g^−1 carboxyl-terminated 50:50 poly(lactic-co-glycolic) acid (PLGA) (LACTEL Absorbable Polymers) in a nanoprecipitation process. 1 mL of 10 mg mL^−1 PLGA solution in acetone was added dropwise to 3 mL of water. For fluorescently labeled nanoformulations, 1,1′-dioctadecyl-3,3,3′,3′-tetramethylindodicarbocyanine perchlorate (DiD, ex=644 nm/em=665 nm, Life Technologies) was loaded into the polymeric cores at 0.1 wt %. The mixture was then stirred in open air for 1 h and placed in vacuum for another 3 h. The resulting nanoparticle solution was filtered with 10 kDa MWCO Amicon Ultra-4 Centrifugal Filters (Millipore). Platelet membrane cloaking was then accomplished by dispersing and fusing platelet membrane vesicles with PLGA particles via sonication using an FS30D bath sonicator at a frequency of 42 kHz and a power of 100 W for 2 min. […] The nanoparticle solutions were subject to either a freeze-thaw cycle or lyophilization followed by resuspension. The resulting particle solution was then monitored for particle size using DLS. […] RBCNPs were prepared using the same polymeric cores and RBC membranes of equivalent total surface area to the platelet membranes using a previously described protocol^16.",
  "data": [
    {"substance": "PNPs", "values": [
      {"measurement": "colloidal stability", "result": "Improved colloidal stability"},
      {"measurement": "size and stability after storage", "result": "retain their size and stability"}
    ]}
  ]
}
